Reference: patent US9512107B2, “Therapeutically active compositions and their methods of use” (Agios Pharmaceuticals, Inc., priority 2012, dated 2016)
Residue numbers refer to the chain shown, from its start. pIC50: −log10 of the molar value.

Tests used:
[1] = system: U87MG pLVX-IDH2 R140Q-neo cells; assay: U87MG pLVX-IDH2 R140Q-neo cell based assay, 2-HG in media by LC-MS at 48 hours; settings: Homo sapiens, U-87 MG
Summary of the method: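 U87MG cells stably expressing IDH2 R140Q were seeded overnight, then exposed to compound at 0.2% final DMSO at 37 °C, 5% CO2. 2-HG in the medium was quantified by LC-MS at 48 h. Growth inhibition was read by CellTiter-Glo luminescence at 72 h.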

IDH2 R172K = biological target: T1, IDH2 R172K (Homo sapiens, UniProt P48735, R172K); assay: IDH2 R172K enzymatic assay (NADPH cofactor depletion, diaphorase/resazurin readout); assay type: biochemical; settings: read-out: Enz R172K
T1 sequence (P48735 40-452 R172K): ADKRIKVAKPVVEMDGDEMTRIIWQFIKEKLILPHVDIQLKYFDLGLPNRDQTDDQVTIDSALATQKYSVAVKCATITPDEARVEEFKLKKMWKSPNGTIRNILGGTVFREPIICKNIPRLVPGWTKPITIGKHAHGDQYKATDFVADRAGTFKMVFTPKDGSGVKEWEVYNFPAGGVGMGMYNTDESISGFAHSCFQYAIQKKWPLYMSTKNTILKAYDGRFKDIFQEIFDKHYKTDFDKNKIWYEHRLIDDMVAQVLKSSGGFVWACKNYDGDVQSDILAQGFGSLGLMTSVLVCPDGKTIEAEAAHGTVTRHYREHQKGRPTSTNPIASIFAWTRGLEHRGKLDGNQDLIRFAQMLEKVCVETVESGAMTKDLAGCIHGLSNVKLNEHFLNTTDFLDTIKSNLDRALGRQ
Summary of the method: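 Test compounds are incubated with the mutant enzyme for one hour at ambient temperature. A substrate mix of 50 μM NADPH plus 6.3 mM α-KG initiates turnover, which proceeds for one hour. Diaphorase and resazurin then halt the reaction by depleting the cofactor and convert the remaining NADPH into a fluorescent signal.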

IDH2 R140Q = biological target: T2, IDH2 R140Q (Homo sapiens, UniProt P48735, R140Q); assay: IDH2 R140Q enzymatic assay (cofactor depletion, similar format); assay type: biochemical; settings: read-out: Enz R140Q
T2 sequence (P48735 40-452 R140Q): T1 sequence (P48735 40-452 R172K) with R101Q, K133R

| Compound | pIC50 [1] | pIC50 (IDH2 R172K) | pIC50 (IDH2 R140Q) |
| --- | --- | --- | --- |
| CC(F)(F)c1cccc(-c2nc(NCC3CC3)nc(Nc3cc(Cl)cc(S(C)(=O)=O)c3)n2)n1 [Compound 609, N2-(3-chloro-5-(methylsulfonyl)phenyl)-N4-(cyclopropylmethyl)-6-(6-(1,1-difluoroethyl)pyridin-2-yl)-1,3,5-triazine-2,4-diamine] | > 7.00 | > 7.00 | 6.00 to 7.00 |
| CC(F)(F)c1cc(Nc2nc(NCC3CC3)nc(-c3cccc(C(C)(F)F)n3)n2)ccn1 [Compound 610, N2-(cyclopropylmethyl)-6-(6-(1,1-difluoroethyl)pyridin-2-yl)-N4-(2-(1,1-difluoroethyl)pyridin-4-yl)-1,3,5-triazine-2,4-diamine] | > 7.00 | > 7.00 | 6.00 to 7.00 |
| CC(F)(F)c1cccc(-c2nc(NCC3CC3)nc(Nc3cccc(S(C)(=O)=O)c3)n2)n1 [Compound 611, N2-(cyclopropylmethyl)-6-(6-(1,1-difluoroethyl)pyridin-2-yl)-N4-(3-(methylsulfonyl)phenyl)-1,3,5-triazine-2,4-diamine] | > 7.00 | 6.00 to 7.00 | 6.00 to 7.00 |
| CC(F)(F)c1cccc(-c2nc(NCC3CC3)nc(Nc3cc(F)cc(S(C)(=O)=O)c3)n2)n1 [Compound 612, N2-(cyclopropylmethyl)-6-(6-(1,1-difluoroethyl)pyridin-2-yl)-N4-(3-fluoro-5-(methylsulfonyl)phenyl)-1,3,5-triazine-2,4-diamine] | > 7.00 | > 7.00 | 6.00 to 7.00 |
| CC(C)Nc1nc(Nc2cc(F)cc(S(C)(=O)=O)c2)nc(-c2cccc(C(C)(F)F)n2)n1 [Compound 613, 6-(6-(1,1-difluoroethyl)pyridin-2-yl)-N2-(3-fluoro-5-(methylsulfonyl)phenyl)-N4-isopropyl-1,3,5-triazine-2,4-diamine] | > 7.00 | > 7.00 | 6.00 to 7.00 |
| CC(C)Nc1nc(Nc2cc(Cl)cc(S(C)(=O)=O)c2)nc(-c2cccc(C(C)(F)F)n2)n1 [Compound 614, N2-(3-chloro-5-(methylsulfonyl)phenyl)-6-(6-(1,1-difluoroethyl)pyridin-2-yl)-N4-isopropyl-1,3,5-triazine-2,4-diamine] | > 7.00 | > 7.00 | 6.00 to 7.00 |
| CC(C)(C)Nc1nc(Nc2cc(Cl)cc(S(C)(=O)=O)c2)nc(-c2cccc(C(C)(F)F)n2)n1 [Compound 615, N2-(tert-butyl)-N4-(3-chloro-5-(methylsulfonyl)phenyl)-6-(6-(1,1-difluoroethyl)pyridin-2-yl)-1,3,5-triazine-2,4-diamine] | > 7.00 | 6.00 to 7.00 | 6.00 to 7.00 |
| CC(C)(C)Nc1nc(Nc2cc(F)cc(S(C)(=O)=O)c2)nc(-c2cccc(C(C)(F)F)n2)n1 [Compound 616, N2-(tert-butyl)-6-(6-(1,1-difluoroethyl)pyridin-2-yl)-N4-(3-fluoro-5-(methylsulfonyl)phenyl)-1,3,5-triazine-2,4-diamine] | > 7.00 | > 7.00 | 6.00 to 7.00 |
| N#CC1(c2cc(Nc3nc(NCC4CC4)nc(-c4cccc(C(F)(F)F)n4)n3)ccn2)CC1 [Compound 617, 1-(4-((4-((cyclopropylmethyl)amino)-6-(6-(trifluoromethyl)pyridin-2-yl)-1,3,5-triazin-2-yl)amino)pyridin-2-yl)cyclopropanecarbonitrile] | > 7.00 | > 7.00 | 6.00 to 7.00 |
| CC(F)(F)c1cccc(-c2nc(NCC3CC3)nc(Nc3ccnc(C(C)(C)C#N)c3)n2)n1 [Compound 618, (4-((4-((cyclopropylmethyl)amino)-6-(6-(1,1-difluoroethyl)pyridin-2-yl)-1,3,5-triazin-2-yl)amino)pyridin-2-yl)-2-methylpropanenitrile] | > 7.00 | > 7.00 | 6.00 to 7.00 |
| CC(F)(F)c1cccc(-c2nc(NCC3CC3)nc(Nc3ccnc(C4(C#N)CC4)c3)n2)n1 [Compound 619, 1-(4-((4-((cyclopropylmethyl)amino)-6-(6-(1,1-difluoroethyl)pyridin-2-yl)-1,3,5-triazin-2-yl)amino)pyridin-2-yl)cyclopropanecarbonitrile] | > 7.00 | > 7.00 | 6.00 to 7.00 |
| CC(C)(O)CNc1nc(Nc2cncc(F)c2)nc(-c2ccccc2F)n1 [Compound 621, 1-(4-(2-fluorophenyl)-6-(5-fluoropyridin-3-ylamino)-1,3,5-triazin-2-ylamino)-2-methylpropan-2-ol] | 6.00 to 7.00 | 5.00 to 6.00 | 6.00 to 7.00 |
| CC(C)(O)CNc1nc(Nc2ccc(F)nc2)nc(-c2ccccc2F)n1 [Compound 622, 1-(4-(2-fluorophenyl)-6-(6-fluoropyridin-3-ylamino)-1,3,5-triazin-2-ylamino)-2-methylpropan-2-ol] | 6.00 to 7.00 | 6.00 to 7.00 | 6.00 to 7.00 |
| CC(C)(O)CNc1nc(Nc2ccnc(F)c2)nc(-c2ccccc2F)n1 [Compound 623, 1-(4-(2-fluorophenyl)-6-(2-fluoropyridin-4-ylamino)-1,3,5-triazin-2-ylamino)-2-methylpropan-2-ol] | 6.00 to 7.00 | 5.00 to 6.00 | 6.00 to 7.00 |
| COc1cccc(-c2nc(Nc3ccnc(C(F)(F)F)c3)nc(NC3COC3)n2)c1F [Compound 624, 6-(2-Fluoro-3-methoxy-phenyl)-N-oxetan-3-yl-N′-(2-trifluoromethyl-pyridin-4-yl)-[1,3,5]triazine-2,4-diamine] | > 7.00 | 6.00 to 7.00 | 6.00 to 7.00 |
| Fc1cncc(Nc2nc(NC3COC3)nc(-c3ccccc3F)n2)c1 [Compound 625, 6-(2-Fluoro-phenyl)-N-(5-fluoro-pyridin-3-yl)-N′-oxetan-3-yl-[1,3,5]triazine-2,4-diamine] | > 7.00 | 6.00 to 7.00 | > 7.00 |
| Fc1ccc(Nc2nc(NC3COC3)nc(-c3ccccc3F)n2)cn1 [Compound 626, 6-(2-Fluoro-phenyl)-N-(6-fluoro-pyridin-3-yl)-N′-oxetan-3-yl-[1,3,5]triazine-2,4-diamine] | 6.00 to 7.00 | 5.00 to 6.00 | 6.00 to 7.00 |
| Fc1ccccc1-c1nc(Nc2ccnc(C(F)(F)F)c2)nc(NC2COC2)n1 [Compound 627, 6-(2-Fluoro-phenyl)-N-oxetan-3-yl-N′-(2-trifluoromethyl-pyridin-4-yl)-[1,3,5]triazine-2,4-diamine] | > 7.00 | > 7.00 | > 7.00 |
| Fc1cc(Nc2nc(NC3COC3)nc(-c3ccccc3F)n2)ccn1 [Compound 628, 6-(2-Fluoro-phenyl)-N-(2-fluoro-pyridin-4-yl)-N′-oxetan-3-yl-[1,3,5]triazine-2,4-diamine] | > 7.00 | 6.00 to 7.00 | > 7.00 |
| Fc1ccccc1-c1nc(Nc2cncc(C(F)(F)F)c2)nc(NC2COC2)n1 [Compound 629, 6-(2-Fluoro-phenyl)-N-oxetan-3-yl-N′-(5-trifluoromethyl-pyridin-3-yl)-[1,3,5]triazine-2,4-diamine] | > 7.00 | > 7.00 | > 7.00 |
| COc1ccc(F)c(-c2nc(Nc3ccnc(C(F)(F)F)c3)nc(NC(C)C)n2)c1 [Compound 630, 6-(2-Fluoro-5-methoxy-phenyl)-N-isopropyl-N′-(2-trifluoromethyl-pyridin-4-yl)-[1,3,5]triazine-2,4-diamine] | > 7.00 | > 7.00 | > 7.00 |
| COc1cccc(-c2nc(Nc3ccnc(C(F)(F)F)c3)nc(NC(C)C)n2)c1F [Compound 631, 6-(2-Fluoro-3-methoxy-phenyl)-N-isopropyl-N′-(2-trifluoromethyl-pyridin-4-yl)-[1,3,5]triazine-2,4-diamine] | > 7.00 | > 7.00 | > 7.00 |
| CC(C)Nc1nc(Nc2ccnc(C(C)(C)O)c2)nc(-c2ccccc2F)n1 [Compound 632, 2-(4-((4-(2-fluorophenyl)-6-(isopropylamino)-1,3,5-triazin-2-yl)amino)pyridin-2-yl)propan-2-ol] | > 7.00 | 6.00 to 7.00 | 6.00 to 7.00 |
| CC(C)Nc1nc(Nc2ccnc(C(F)(F)F)c2)nc(-c2cccc(O)c2F)n1 [Compound 633, 2-Fluoro-3-[4-isopropylamino-6-(2-trifluoromethyl-pyridin-4-ylamino)-[1,3,5]triazin-2-yl]-phenol] | > 7.00 | > 7.00 | 6.00 to 7.00 |
